In ChEMBL document CHEMBL1125091, “Antiulcer agents. 4-substituted 2-guanidinothiazoles: reversible, competitive, and selective inhibitors of gastric H+,K(+)-ATPase” (J Med Chem, 1990):
pIC50: −log10 of the molar value. Several values for one entry are separate records, joined by “and”; a condition that tells them apart may be missing. Equal entries are not always repeated.

tested on: Potassium-transporting ATPase (Canis familiaris); assay: Percent inhibition of gastric proton-pump enzyme H+/K+ ATPase was determined at 50 uM; details: Canis lupus familiaris, Stomach

SMILES | inhibition [%]
N=C(N)Nc1nc(-c2cccc(O)c2)cs1 | 69
N=C(N)Nc1nc(-c2ccc(O)cc2)cs1 | 75
N=C(N)Nc1nc(-c2cc[nH]c2)cs1 | 68
N#Cc1ccc2[nH]cc(-c3csc(NC(=N)N)n3)c2c1 | 80
N=C(NCc1ccccc1)Nc1nc(-c2ccc(F)cc2)cs1 | 35
N=C(NCc1ccccc1)Nc1nc(-c2cccc(Cl)c2)cs1 | 80
Cc1cc(-c2csc(NC(=N)NCc3ccccc3)n2)cn1S(=O)(=O)c1ccccc1 | 69
N/C(=N\Cc1ccccc1)Nc1nc(-c2cccc(O)c2)cs1 | 8
N=C(N)Nc1nc(-c2ccccc2)cs1 | 52
Cc1ccc2c(-c3csc(NC(=N)NCc4ccccc4)n3)c[nH]c2c1 | 98
Cc1cc(-c2nc(NC(=N)Nc3ccccc3)sc2C)c[nH]1 | 83
CCOC(=O)c1cc(-c2csc(N=C(N)N)n2)[nH]c1C | 91
Cc1cccc2[nH]cc(-c3csc(NC(=N)NCc4ccccc4)n3)c12 | 103
Cc1cccc2c(-c3csc(NC(=N)NCc4ccccc4)n3)c[nH]c12 | 92
Cc1ccccc1-c1csc(NC(=N)NCc2ccccc2)n1 | 111
N=C(NCc1ccccc1)Nc1nc(-c2ccc(Cl)cc2)cs1 | 38
COc1ccccc1-c1csc(NC(=N)NCc2ccccc2)n1 | 99
N=C(N)Nc1nc(-c2c[nH]c3ccc(F)cc23)cs1 | 90
Cc1ccc(C/N=C(\N)Nc2nc(-c3c[nH]c(C)c3)c(C)s2)cc1 | 95
Cc1cc(-c2csc(NC3=NCCN3C)n2)c[nH]1 | 13
Cc1cc(-c2csc(NC3=NCCN3)n2)c[nH]1 | 25
Cc1c(-c2csc(NC(=N)NCc3ccccc3)n2)ccn1S(=O)(=O)c1ccccc1 | 54
N=C(NCc1ccccc1)Nc1nc(-c2cc3cc(Cl)ccc3[nH]2)cs1 | 97
N=C(NCc1ccccc1)Nc1nc(-c2c[nH]c3ccc(F)cc23)cs1 | 96
Cc1[nH]c2ccccc2c1-c1csc(N=C(N)N)n1 | 85
N=C(NCc1ccccc1)Nc1nc(-c2cc3cc(F)ccc3[nH]2)cs1 | 49

SMILES | inhibition [%]
COc1ccc(-c2csc(N=C(N)N)n2)cc1OC | 41
Cc1cccc(-c2csc(N=C(N)N)n2)c1 | 60
Cc1cc(-c2csc(N=C(N)N)n2)cn1S(=O)(=O)c1ccccc1 | 92
Cc1[nH]c(-c2csc(N=C(N)N)n2)cc1CN(C)C | 87
N=C(N)Nc1nc(-c2ccccc2Cl)cs1 | 71
CCCCC/N=C(\N)Nc1nc(-c2cccc(OC)c2)cs1 | 25
COC(=O)c1ccc2[nH]cc(-c3csc(NC(=N)NCc4ccccc4)n3)c2c1 | 94
Nc1nc(-c2c[nH]c(C=O)c2)cs1 | 9
N=C(N)Nc1nc(-c2c[nH]c3ccccc23)cs1 | 91
CN(C)c1ccc(-c2csc(N=C(N)N)n2)cc1 | 75
Cc1ccc2[nH]cc(-c3csc(N=C(N)N)n3)c2c1 | 76
Cc1[nH]ccc1-c1csc(N=C(N)N)n1 | 96
N=C(N)Nc1nc(-c2ccccc2O)cs1 | 26
COc1ccc(-c2csc(NC(=N)NCc3ccccc3)n2)cc1 | 24
CN(C)Cc1cc(-c2csc(N=C(N)N)n2)c[nH]1 | 94
CN(C)Cc1ccccc1-c1csc(N=C(N)N)n1 | 27
Cc1nc(-c2c[nH]c(C=O)c2)cs1 | 5
Cc1[nH]c2ccccc2c1-c1csc(NC(=N)NCc2ccccc2)n1 | 102
Cc1sc(N=C(N)N)nc1-c1c[nH]c(C=O)c1 | 77
N=C(NCc1ccccc1)Nc1nc(-c2c[nH]c3ccccc23)cs1 | 102
Cc1ccc(-c2csc(NC(=N)NCc3ccccc3)n2)cc1 | 16
COc1ccccc1-c1csc(N=C(N)N)n1 | 70
Cc1sc(NC(=N)NCc2ccccc2)nc1-c1ccn(S(=O)(=O)c2ccccc2)c1C | 35
Cc1sc(N=C(N)N)nc1-c1c[nH]c2ccc(Cl)cc12 | 99
CC(=O)Nc1ccc2[nH]cc(-c3csc(NC(=N)NCc4ccccc4)n3)c2c1 | 66
N=C(N)Nc1nc(-c2cc3cc(F)ccc3[nH]2)cs1 | 87

SMILES | inhibition [%]
N=C(NCc1ccccc1)Nc1nc(-c2ccc(-c3ccccc3)cc2)cs1 | 5
Cc1sc(NC(=N)NCc2ccccc2)nc1-c1c[nH]c2ccccc12 | 34
N/C(=N\Cc1ccccc1)Nc1nc(-c2ccc(N)cc2)cs1 | 77
Cc1cc(-c2csc(NC3=NCCCN3Cc3ccccc3)n2)c[nH]1 | 19
N=C(N)Nc1nc(-c2ccc(N)cc2)cs1 | 63
Cc1cc(-c2csc(C)n2)c[nH]1 | 0
COc1cccc(-c2csc(NC(=N)NCc3ccccc3)n2)c1 | 85
Cc1[nH]c2ccc(Cl)cc2c1-c1nc(N=C(N)N)sc1C | 103
N=C(N)Nc1nc(-c2ccc(-c3ccccc3)cc2)cs1 | 25
N=C(N)Nc1cc(Cl)nc(-c2ccccc2)n1 | 89
N=C(N)Nc1nc(-c2ccc(F)cc2)cs1 | 61
N=C(NCc1ccccc1)Nc1nc(-c2c[nH]c3ccc(OCc4ccccc4)cc23)cs1 | 90
CN(C)c1cccc(-c2csc(NC(=N)N)n2)c1 | 52
Cc1cc(-c2nc(NC(=N)NCc3ccccc3)sc2C)c[nH]1 | 83
Cc1ccc(-c2csc(NC(=N)NCc3ccccc3)n2)n1S(=O)(=O)c1ccccc1 | 57
N=C(N)Nc1nc(-c2ccccc2)co1 | 0
COC(=O)c1ccc2[nH]cc(-c3csc(N=C(N)N)n3)c2c1 | 86
N/C(=N\Cc1ccccc1)Nc1nc(-c2ccccc2O)cs1 | 85
N=C(N)Nc1nc(-c2c[nH]c3ccc(OCc4ccccc4)cc23)cs1 | 78
Cc1sc(N=C(N)N)nc1-c1ccc(O)c(O)c1 | 97
N#Cc1ccc2[nH]cc(-c3csc(NC(=N)NCc4ccccc4)n3)c2c1 | 50
Cc1cccc(-c2csc(NC(=N)NCc3ccccc3)n2)c1 | 53
Cc1cc(-c2nc(NC(=N)NCCc3ccccc3)sc2C)c[nH]1 | 87
Cc1cc(-c2csc(N=C(N)N)n2)cn1C | 74
N=C(N)Nc1nc(-c2c[nH]c(CN3CCCCC3)c2)cs1 | 55
N=C(N)Nc1nc(-c2ccc[nH]2)cs1 | 68

SMILES | inhibition [%]
N=C(NCc1ccccc1)Nc1nc(-c2c[nH]c3ccc(Cl)cc23)cs1 | 92
N=C(N)Nc1nc(-c2cccc(Cl)c2)cs1 | 48
Cc1ccc(-c2csc(NC(=N)NCc3ccccc3)n2)[nH]1 | 83
CCCCCC/N=C(\N)Nc1nc(-c2c[nH]c(C)c2)cs1 | 93
Cc1cc(-c2csc(NC(=N)N3CCCCC3)n2)c[nH]1 | 34
Cc1[nH]ccc1-c1nc(NC(=N)NCc2ccccc2)sc1C | 80
Cc1cc(-c2csc(NC(=N)NCc3ccccc3)n2)c[nH]1 | 97
Cn1cc(-c2csc(N=C(N)N)n2)cc1C=O | 44
Cc1cc(-c2csc(NC(=N)NCc3ccc(Cl)cc3)n2)c[nH]1 | 95
CCCCCCN(C)C(=N)Nc1nc(-c2c[nH]c(C)c2)cs1 | 54
COc1ccc2[nH]cc(-c3csc(N=C(N)N)n3)c2c1 | 70
Cc1ccccc1-c1csc(N=C(N)N)n1 | 78
Cc1ccc(-c2csc(N=C(N)N)n2)n1C | 20
N/C(=N\Cc1ccccc1)Nc1nc(-c2ccc(O)cc2)cs1 | 49
Cc1[nH]c(-c2csc(N=C(N)N)n2)cc1C(=O)N(C)C | 33
COc1ccc(-c2csc(NC(=N)NCc3ccccc3)n2)cc1OC | 25
N=C(N)NCCc1c[nH]c2ccccc12 | 15
N=C(N)Nc1nc(-c2ccc(Cl)cc2)cs1 | 48
N=C(N)Nc1nc(-c2cccc(N)c2)cs1 | 45
CCCCCC/N=C(\NC)Nc1nc(-c2c[nH]c(C)c2)cs1 | 68
N=C(NCc1ccccc1)Nc1nc(-c2ccccc2)cs1 | -1
Cc1ccc(-c2csc(N=C(N)N)n2)cc1 | 61
N=C(N)Nc1nc(-c2c[nH]c(C=O)c2)cs1 | 44
N=C(N)Nc1ccc(-c2ccccc2)cc1 | 16
Cc1cc(-c2csc(N)n2)c[nH]1 | 17

target: Potassium-transporting ATPase (Canis familiaris); assay: Inhibitory activity against dog gastric proton-pump enzyme H+/K+ ATPase; details: not given

SMILES | pIC50
N=C(N)Nc1nc(-c2cccc(O)c2)cs1 | 4.64
N=C(N)Nc1nc(-c2ccc(O)cc2)cs1 | 4.82
Cc1ccc2c(-c3csc(NC(=N)NCc4ccccc4)n3)c[nH]c2c1 | 5.80
Cc1cc(-c2nc(NC(=N)Nc3ccccc3)sc2C)c[nH]1 | 5.01
CCOC(=O)c1cc(-c2csc(N=C(N)N)n2)[nH]c1C | 5.15
Cc1cccc2c(-c3csc(NC(=N)NCc4ccccc4)n3)c[nH]c12 | 6.00
Cc1ccccc1-c1csc(NC(=N)NCc2ccccc2)n1 | 5.00
COc1ccccc1-c1csc(NC(=N)NCc2ccccc2)n1 | 5.64
N=C(N)Nc1nc(-c2c[nH]c3ccc(F)cc23)cs1 | 5.13
Cc1ccc(C/N=C(\N)Nc2nc(-c3c[nH]c(C)c3)c(C)s2)cc1 | 5.54
N=C(NCc1ccccc1)Nc1nc(-c2cc3cc(Cl)ccc3[nH]2)cs1 | 5.04
N=C(NCc1ccccc1)Nc1nc(-c2c[nH]c3ccc(F)cc23)cs1 | 5.57
Cc1[nH]c2ccccc2c1-c1csc(N=C(N)N)n1 | 5.05
Cc1cccc(-c2csc(N=C(N)N)n2)c1 | 4.49
Cc1cc(-c2csc(N=C(N)N)n2)cn1S(=O)(=O)c1ccccc1 | 5.70
Cc1[nH]c(-c2csc(N=C(N)N)n2)cc1CN(C)C | 4.96
N=C(N)Nc1nc(-c2ccccc2Cl)cs1 | 4.74 and 5.05
COC(=O)c1ccc2[nH]cc(-c3csc(NC(=N)NCc4ccccc4)n3)c2c1 | 5.51
N=C(N)Nc1nc(-c2c[nH]c3ccccc23)cs1 | 5.05
CN(C)c1ccc(-c2csc(N=C(N)N)n2)cc1 | 4.85

SMILES | pIC50
Cc1ccc2[nH]cc(-c3csc(N=C(N)N)n3)c2c1 | 5.74
Cc1[nH]ccc1-c1csc(N=C(N)N)n1 | 5.15
CN(C)Cc1cc(-c2csc(N=C(N)N)n2)c[nH]1 | 5.05
Cc1[nH]c2ccccc2c1-c1csc(NC(=N)NCc2ccccc2)n1 | 5.77
Cc1sc(N=C(N)N)nc1-c1c[nH]c(C=O)c1 | 4.55
N=C(NCc1ccccc1)Nc1nc(-c2c[nH]c3ccccc23)cs1 | 5.82
COc1ccccc1-c1csc(N=C(N)N)n1 | 4.57
Cc1cccc2[nH]cc(-c3csc(N=C(N)NCc4ccccc4)n3)c12 | 5.48
Cc1sc(N=C(N)N)nc1-c1c[nH]c2ccc(Cl)cc12 | 6.23
CC(=O)Nc1ccc2[nH]cc(-c3csc(NC(=N)NCc4ccccc4)n3)c2c1 | 4.62
N=C(N)Nc1nc(-c2cc3cc(F)ccc3[nH]2)cs1 | 5.40
N/C(=N\Cc1ccccc1)Nc1nc(-c2ccc(N)cc2)cs1 | 5.28
N=C(N)Nc1nc(-c2ccc(N)cc2)cs1 | 4.49
COc1cccc(-c2csc(NC(=N)NCc3ccccc3)n2)c1 | 5.00
Cc1[nH]c2ccc(Cl)cc2c1-c1nc(N=C(N)N)sc1C | 6.22
NC(N)=Nc1nc(-c2ccccc2)cs1 | 4.40
N=C(N)Nc1nc(-c2ccc(F)cc2)cs1 | 4.48
N=C(NCc1ccccc1)Nc1nc(-c2c[nH]c3ccc(OCc4ccccc4)cc23)cs1 | 5.74
Cc1cc(-c2nc(NC(=N)NCc3ccccc3)sc2C)c[nH]1 | 5.10
Cc1ccc(-c2csc(NC(=N)NCc3ccccc3)n2)n1S(=O)(=O)c1ccccc1 | 4.59

SMILES | pIC50
COC(=O)c1ccc2[nH]cc(-c3csc(N=C(N)N)n3)c2c1 | 5.17
N/C(=N\Cc1ccccc1)Nc1nc(-c2ccccc2O)cs1 | 4.96
N=C(N)Nc1nc(-c2c[nH]c3ccc(OCc4ccccc4)cc23)cs1 | 5.92
Cc1sc(N=C(N)N)nc1-c1ccc(O)c(O)c1 | 5.80
Cc1cc(-c2nc(NC(=N)NCCc3ccccc3)sc2C)c[nH]1 | 5.04
Cc1cc(-c2csc(N=C(N)N)n2)cn1C | 4.62
N=C(N)Nc1nc(-c2ccc[nH]2)cs1 | 4.52
N=C(NCc1ccccc1)Nc1nc(-c2c[nH]c3ccc(Cl)cc23)cs1 | 6.15
N=C(N)Nc1nc(-c2cccc(Cl)c2)cs1 | 4.28
CCCCCC/N=C(\N)Nc1nc(-c2c[nH]c(C)c2)cs1 | 5.15
Cc1[nH]ccc1-c1nc(NC(=N)NCc2ccccc2)sc1C | 5.06
Cc1cc(-c2csc(NC(=N)NCc3ccccc3)n2)c[nH]1 | 4.96
Cc1cc(-c2csc(NC(=N)NCc3ccc(Cl)cc3)n2)c[nH]1 | 5.15
COc1ccc2[nH]cc(-c3csc(N=C(N)N)n3)c2c1 | 4.72
Cc1ccccc1-c1csc(N=C(N)N)n1 | 4.70
Cc1sc(N=C(N)NCc2ccccc2)nc1-c1c[nH]c2ccc(Cl)cc12 | 6.15
NC(N)=Nc1cc(Cl)nc(-c2ccccc2)n1 | 5.22
Cc1ccc(-c2csc(N=C(N)NCc3ccccc3)n2)[nH]1 | 5.15
